Test results published in patent publication US20070173456A1, “PREPTIN FRAGMENTS AND METHODS OF USE” (Auckland UniServices Limited, priority 2005, published 2007).

How the values were obtained:
[1] = tested on: isolated, perfused rat pancreas; conditions: infusion into isolated, Buchanan et al. 2001; cited from earlier work
rat osteoblasts = assay: Osteoblast proliferation, [3H]-thymidine incorporation; assay type: cell-based; conditions: versus vehicle control; for proliferation of rat osteoblasts, as measured by thymidine incorporation (FIG. 1): primary fetal rat calvarial osteoblasts, peptide 1×10^−9 M, 20-24 hours; for proliferation of rat osteoblasts, as measured by thymidine incorporation, parallel comparison (FIG. 4): various concentrations, compared in parallel
Experimental: Osteoblasts were isolated from 20 day fetal rat calvariae as previously described (Cornish et al., American Journal of Physiology—Endocrinology & Metabolism 277: E779-E783, 1999). Briefly, calvariae were dissected aseptically and the frontal and parietal bones are stripped of their periosteum. Only the central portions of the bones, free from suture tissue, were collected. The calvariae were treated twice with phosphate buffered saline (PBS) containing 3 mM EDTA (pH 7.4) for 15 minutes at 37° C. in a shaking water bath. Calvariae were washed once in PBS and treated twice with 3 ml of collagenase (1 mg/ml) for 7 minutes at 37° C. After discarding supernatants from the first two collagenase digestions, calvariae were treated twice with 3 ml collagenase (2 mg/ml) for 30 minutes at 37° C. The supernatants from these third and fourth collagenase digestions were collected, pooled and centrifuged. The pelleted cells were washed in Dulbecco's modified Eagle's medium (DME) with 10% fetal calf serum (FCS), resuspended in DME/10% FCS, and placed in 75 cm^2 flasks. Cells were incubated under 5% CO2 and 95% air at 37° C. Cells were grown to confluence (approximately 5-6 days) and then subcultured.
To set up subcultures, cells were trypsinized in trypsin-EDTA (0.05%/0.53 mM), rinsed in minimal essential medium (MEM) with 5% FCS, resuspended in fresh medium, and seeded at 5×10^4 cells/ml in 24-well plates (0.5 ml cell suspension per well, i.e., 1.4×10^4 cells/cm^2).
To evaluate the proliferative responses of osteoblast cultures in the presence of preptin and various fragments of preptin, subconfluent cell cultures were growth arrested by incubation in MEM/0.1% bovine serum albumin 24 hours prior to addition of test compounds. Cells were cultured in the presence of full-length preptin (preptin 1-34), preptin 1-19, preptin 20-34, or in the absence of preptin compounds (control). Preptin compounds were added to a final concentration of 1×10^−9 M. A pulse of [^3H]-thymidine (1 […]) was added to each sample two hours prior to the end of each experimental incubation. The incubations were terminated 20-24 hours after addition of preptin compounds by washing the cells in MEM containing non-radioactive thymidine, followed by the addition of 10% trichloroacetic acid. The precipitate was washed twice either ethanol:ether (3:1) and the wells were desiccated at room temperature. The residue in each well was redissolved in 2 M KOH at 55° C. for 30 minutes, neutralized with 1 M HCl, and an aliquot was removed to quantitate incorporation of radioactivity in the samples. The results are depicted in FIG. 1. […] The results are representative of at least four independent assays.

| Substance | insulin secretion [1] | proliferation of rat osteoblasts, as measured by thymidine incorporation (FIG. 1) (rat osteoblasts) | proliferation of rat osteoblasts, as measured by thymidine incorporation, parallel comparison (FIG. 4) (rat osteoblasts) |
| --- | --- | --- | --- |
| Asp Val Ser Thr R1 R2 R3 Val Leu Pro Asp R4 Phe Pro Arg Tyr Pro Val Gly Lys Phe Phe R5 R6 Asp Thr Trp R7 Gln Ser R8 Rg Arg Leu [preptin 1-34, reference compound] | significant increase in the second phase of secretion | stimulated | – |
| Asp Val Ser Thr R1 R2 R3 Val Leu Pro Asp R4 Phe Pro Arg Tyr Pro Val Gly [preptin 1-19] | – | enhances osteoblast proliferation in vitro, to levels comparable to those stimulated by full-length preptin | significant increase in proliferation at 1×10^−9M |
| preptin 20-34: a C-terminal fragment of preptin (KFFQYDTWKQSTQRL; Preptin; UniProt P01344 112-126, looked up, fragment) [reference compound] | – | No enhancement of osteoblast proliferation was observed | did not stimulate a significant increase in proliferation at any of the concentrations tested |
